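48-hour exposure; five concentrations; linearly interpolated endpoints. GI50 marks 50% less growth.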 The source made the active and inactive calls. No stated cut-off is given here; in the data, active = GI50 up to about 1.1 µM and inactive = higher.
How the values were obtained:
Experiment in all cases: DTP human tumour cell line panel, 48 h
CAKI-1 = system: CAKI-1
KM12 = system: KM12
HT-29 = system: HT-29
HOP-18 = system: HOP-18
SNB-75 = system: SNB-75
LXFL 529 = system: LXFL 529
OVCAR-8 = system: OVCAR-8
SK-MEL-2 = system: SK-MEL-2
MOLT-4 = system: MOLT-4
UO-31 = system: UO-31
HCC 2998 = system: HCC 2998
NCI-H23 = system: NCI-H23
K562 = system: K562
HL-60 = system: HL-60
RPMI-8226 = system: RPMI-8226
M14 = system: M14
NCI-H226 = system: NCI-H226
EKVX = system: EKVX
DLD-1 = system: DLD-1
SR = system: SR
COLO 205 = system: COLO 205
HCT-116 = system: HCT-116
ACHN = system: ACHN
A549 = system: A549
SK-MEL-28 = system: SK-MEL-28
SK-MEL-5 = system: SK-MEL-5
SNB-78 = system: SNB-78
Malme-3M = system: Malme-3M
SNB-19 = system: SNB-19
XF498 = system: XF498
IGROV-1 = system: IGROV-1
HOP-92 = system: HOP-92
LOX IMVI = system: LOX IMVI
RXF 631 = system: RXF 631
OVCAR-4 = system: OVCAR-4
DMS-273 = system: DMS-273
U-251 = system: U-251
SF-295 = system: SF-295
RXF 393 = system: RXF 393
TK-10 = system: TK-10
HCT-15 = system: HCT-15
KM-20L2 = system: KM-20L2
A498 = system: A498
SF-268 = system: SF-268
SW-620 = system: SW-620
NCI-H460 = system: NCI-H460
UACC-257 = system: UACC-257
OVCAR-5 = system: OVCAR-5
CCRF-CEM = system: CCRF-CEM
SF-539 = system: SF-539
SN12C = system: SN12C
OVCAR-3 = system: OVCAR-3
M19-MEL = system: M19-MEL
NCI-H522 = system: NCI-H522
786-0 = system: 786-0
UACC-62 = system: UACC-62
HOP-62 = system: HOP-62
SK-OV-3 = system: SK-OV-3
DMS-114 = system: DMS-114

With `Nc1nc(=O)[nH]c2c1cnn2C1CCCCO1` (stereo not drawn) the GI50 (CAKI-1) was > 100 µM (inactive), the GI50 (KM12) was > 100 µM (inactive) and the GI50 (HT-29) was > 100 µM (inactive). The GI50 (HOP-18) was > 100 µM (inactive), the GI50 (SNB-75) was > 100 µM (inactive) and the GI50 (LXFL 529) was > 100 µM (inactive). For the same compound, the GI50 (OVCAR-8) was > 100 µM (inactive), the GI50 (SK-MEL-2) was > 100 µM (inactive) and the GI50 (MOLT-4) was > 100 µM (inactive). The GI50 (UO-31) was > 100 µM (inactive), the GI50 (HCC 2998) was > 100 µM (inactive) and the GI50 (NCI-H23) was > 100 µM (inactive). For the same compound, the GI50 (K562) was > 100 µM (inactive), the GI50 (HL-60) was 38.4 µM (inactive) and the GI50 (RPMI-8226) was > 100 µM (inactive). The GI50 (M14) was > 100 µM (inactive), the GI50 (NCI-H226) was 39.3 µM (inactive) and the GI50 (EKVX) was > 100 µM (inactive). For the same compound, the GI50 (DLD-1) was 62.7 µM (inactive), the GI50 (SR) was 56 µM (inactive) and the GI50 (COLO 205) was > 100 µM (inactive). The GI50 (HCT-116) was > 100 µM (inactive), the GI50 (ACHN) was > 100 µM (inactive) and the GI50 (A549) was > 100 µM (inactive). The GI50 (SK-MEL-28) was > 100 µM (inactive), the GI50 (SK-MEL-5) was 70.3 µM (inactive) and the GI50 (SNB-78) was > 100 µM (inactive). For the same compound, the GI50 (Malme-3M) was > 100 µM (inactive), the GI50 (SNB-19) was > 100 µM (inactive) and the GI50 (XF498) was > 100 µM (inactive). The GI50 (IGROV-1) was > 100 µM (inactive), the GI50 (HOP-92) was > 100 µM (inactive) and the GI50 (LOX IMVI) was > 100 µM (inactive). The GI50 (RXF 631) was > 100 µM (inactive), the GI50 (OVCAR-4) was > 100 µM (inactive) and the GI50 (DMS-273) was > 100 µM (inactive). For the same compound, the GI50 (U-251) was > 100 µM (inactive), the GI50 (SF-295) was > 100 µM (inactive) and the GI50 (RXF 393) was 56 µM (inactive). The GI50 (TK-10) was > 100 µM (inactive), the GI50 (HCT-15) was over 100 µM and the GI50 (KM-20L2) was > 100 µM (inactive). The GI50 (A498) was > 100 µM (inactive), the GI50 (SF-268) was > 100 µM (inactive) and the GI50 (SW-620) was > 100 µM (inactive). The GI50 (NCI-H460) was > 100 µM (inactive), the GI50 (UACC-257) was > 100 µM (inactive) and the GI50 (OVCAR-5) was 64 µM (inactive). The GI50 (CCRF-CEM) was > 100 µM (inactive), the GI50 (SF-539) was > 100 µM (inactive) and the GI50 (SN12C) was > 100 µM (inactive).
With `COC(=O)C1=C(C(=O)OC)C2(c3ccccc3)OC1(c1ccccc1)c1cc3ccccc3cc12` the GI50 (CAKI-1) was 1.29 µM (inactive), the GI50 (KM12) was 1.97 µM (inactive) and the GI50 (HT-29) was 1.77 µM (inactive). For the same compound, the GI50 (HOP-18) was 1.22 µM (inactive), the GI50 (SNB-75) was 0.604 µM (active) and the GI50 (LXFL 529) was 1.22 µM (inactive). The GI50 (OVCAR-8) was 1.56 µM (inactive), the GI50 (SK-MEL-2) was 1.64 µM (inactive) and the GI50 (MOLT-4) was 0.733 µM (active). The GI50 (UO-31) was 1.42 µM (inactive), the GI50 (HCC 2998) was 1.95 µM (inactive) and the GI50 (NCI-H23) was 1.92 µM (inactive). The GI50 (K562) was 1.51 µM (inactive), the GI50 (OVCAR-3) was 1.37 µM (inactive) and the GI50 (HL-60) was 0.45 µM (active). For the same compound, the GI50 (RPMI-8226) was 0.764 µM (active), the GI50 (M14) was 1.79 µM (inactive) and the GI50 (M19-MEL) was 1.98 µM (inactive). For the same compound, the GI50 (EKVX) was 1.8 µM (inactive), the GI50 (NCI-H522) was 1.23 µM (inactive) and the GI50 (DLD-1) was 1.74 µM (inactive). The GI50 (COLO 205) was 2.11 µM (inactive), the GI50 (786-0) was 1.4 µM (inactive) and the GI50 (ACHN) was 1.68 µM (inactive). The GI50 (A549) was 2.43 µM (inactive), the GI50 (SK-MEL-28) was 1.87 µM (inactive) and the GI50 (UACC-62) was 1.85 µM (inactive). For the same compound, the GI50 (SK-MEL-5) was 2.21 µM (inactive), the GI50 (Malme-3M) was 1.6 µM (inactive) and the GI50 (SNB-19) was 4.2 µM (inactive). The GI50 (IGROV-1) was 1.9 µM (inactive), the GI50 (HOP-62) was 13.3 µM (inactive) and the GI50 (HOP-92) was 1.09 µM (active). The GI50 (LOX IMVI) was 1.32 µM (inactive), the GI50 (RXF 631) was 1.88 µM (inactive) and the GI50 (OVCAR-4) was 1.7 µM (inactive). For the same compound, the GI50 (DMS-273) was 1.76 µM (inactive), the GI50 (U-251) was 6.43 µM (inactive) and the GI50 (SF-295) was 6.28 µM (inactive). The GI50 (RXF 393) was 1.29 µM (inactive), the GI50 (TK-10) was 2.05 µM (inactive) and the GI50 (SK-OV-3) was 11.2 µM (inactive). For the same compound, the GI50 (HCT-15) was 1.82 µM, the GI50 (KM-20L2) was 1.88 µM (inactive) and the GI50 (SF-268) was 1.73 µM (inactive). For the same compound, the GI50 (SW-620) was 1.76 µM (inactive), the GI50 (NCI-H460) was 3.56 µM (inactive) and the GI50 (OVCAR-5) was 1.91 µM (inactive). For the same compound, the GI50 (CCRF-CEM) was 0.451 µM (active), the GI50 (SF-539) was 1.67 µM (inactive) and the GI50 (SN12C) was 1.9 µM (inactive).
`CC(C)N(CCn1c2c3ccccc3ccc2c2oc(=O)c3ccccc3c21)C(C)C` was tested, and the GI50 (CAKI-1) was > 100 µM (inactive), the GI50 (KM12) was > 100 µM (inactive) and the GI50 (HT-29) was > 100 µM (inactive). For the same compound, the GI50 (HOP-18) was 32.7 µM (inactive), the GI50 (SNB-75) was 25.2 µM (inactive) and the GI50 (LXFL 529) was > 100 µM (inactive). The GI50 (OVCAR-8) was > 48.6 µM (inactive), the GI50 (SK-MEL-2) was > 100 µM (inactive) and the GI50 (MOLT-4) was > 100 µM (inactive). The GI50 (UO-31) was > 100 µM (inactive), the GI50 (NCI-H23) was > 100 µM (inactive) and the GI50 (K562) was > 100 µM (inactive). For the same compound, the GI50 (OVCAR-3) was > 100 µM (inactive), the GI50 (HL-60) was > 100 µM (inactive) and the GI50 (RPMI-8226) was > 100 µM (inactive). The GI50 (M14) was > 100 µM (inactive), the GI50 (M19-MEL) was > 100 µM (inactive) and the GI50 (NCI-H226) was > 100 µM (inactive). The GI50 (EKVX) was > 100 µM (inactive), the GI50 (NCI-H522) was > 100 µM (inactive) and the GI50 (DLD-1) was > 100 µM (inactive). The GI50 (SR) was > 100 µM (inactive), the GI50 (COLO 205) was > 100 µM (inactive) and the GI50 (HCT-116) was > 100 µM (inactive). The GI50 (786-0) was 50.4 µM (inactive), the GI50 (ACHN) was > 100 µM (inactive) and the GI50 (A549) was > 100 µM (inactive). The GI50 (SK-MEL-28) was > 100 µM (inactive), the GI50 (UACC-62) was > 100 µM (inactive) and the GI50 (SNB-78) was 98.9 µM (inactive). For the same compound, the GI50 (Malme-3M) was > 100 µM (inactive), the GI50 (SNB-19) was 65.8 µM (inactive) and the GI50 (XF498) was 75.7 µM (inactive). The GI50 (IGROV-1) was > 100 µM (inactive), the GI50 (HOP-62) was > 23.1 µM (inactive) and the GI50 (HOP-92) was > 54.3 µM (inactive). The GI50 (LOX IMVI) was > 100 µM (inactive), the GI50 (RXF 631) was > 100 µM (inactive) and the GI50 (OVCAR-4) was > 100 µM (inactive). The GI50 (U-251) was > 86.9 µM (inactive), the GI50 (SF-295) was > 52.2 µM (inactive) and the GI50 (RXF 393) was > 100 µM (inactive). For the same compound, the GI50 (TK-10) was > 100 µM (inactive), the GI50 (SK-OV-3) was > 100 µM (inactive) and the GI50 (HCT-15) was over 100 µM. The GI50 (KM-20L2) was > 100 µM (inactive), the GI50 (A498) was > 100 µM (inactive) and the GI50 (DMS-114) was > 100 µM (inactive). The GI50 (SF-268) was > 69.7 µM (inactive), the GI50 (SW-620) was > 100 µM (inactive) and the GI50 (NCI-H460) was > 100 µM (inactive). For the same compound, the GI50 (UACC-257) was > 54.8 µM (inactive), the GI50 (OVCAR-5) was > 100 µM (inactive) and the GI50 (CCRF-CEM) was > 100 µM (inactive). The GI50 (SF-539) was > 43.3 µM (inactive) and the GI50 (SN12C) was > 100 µM (inactive).
